Measured values from article PMC5766581, “NF-κB inducing kinase is a therapeutic target for systemic lupus erythematosus” (Nature Communications, 2018).

Tests used:
Test in all cases: SelectScreen kinase panel
Type in all cases: biochemical
BTK = target: T1, BTK (Homo sapiens, UniProt Q06187)
T1 construct: purchased Invitrogen / ThermoFisher SelectScreen
How it was run: (§1)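 Human kinases were profiled in Invitrogen's SelectScreen broad panel. Depending on the enzyme, inhibition was assessed by peptide phosphorylation (Z′-LYTE), by ADP formation (Adapta), or by displacement at the ATP site (LanthaScreen), and then reported as mean percent inhibition.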

Blk = target: T2, Blk (Homo sapiens, UniProt P51451)
T2 construct: purchased Invitrogen / ThermoFisher SelectScreen
How it was run: as §1

Bmx = target: T3, Bmx (Homo sapiens, UniProt P51813)
T3 construct: purchased Invitrogen / ThermoFisher SelectScreen
T3 sequence (P51813 whole entry): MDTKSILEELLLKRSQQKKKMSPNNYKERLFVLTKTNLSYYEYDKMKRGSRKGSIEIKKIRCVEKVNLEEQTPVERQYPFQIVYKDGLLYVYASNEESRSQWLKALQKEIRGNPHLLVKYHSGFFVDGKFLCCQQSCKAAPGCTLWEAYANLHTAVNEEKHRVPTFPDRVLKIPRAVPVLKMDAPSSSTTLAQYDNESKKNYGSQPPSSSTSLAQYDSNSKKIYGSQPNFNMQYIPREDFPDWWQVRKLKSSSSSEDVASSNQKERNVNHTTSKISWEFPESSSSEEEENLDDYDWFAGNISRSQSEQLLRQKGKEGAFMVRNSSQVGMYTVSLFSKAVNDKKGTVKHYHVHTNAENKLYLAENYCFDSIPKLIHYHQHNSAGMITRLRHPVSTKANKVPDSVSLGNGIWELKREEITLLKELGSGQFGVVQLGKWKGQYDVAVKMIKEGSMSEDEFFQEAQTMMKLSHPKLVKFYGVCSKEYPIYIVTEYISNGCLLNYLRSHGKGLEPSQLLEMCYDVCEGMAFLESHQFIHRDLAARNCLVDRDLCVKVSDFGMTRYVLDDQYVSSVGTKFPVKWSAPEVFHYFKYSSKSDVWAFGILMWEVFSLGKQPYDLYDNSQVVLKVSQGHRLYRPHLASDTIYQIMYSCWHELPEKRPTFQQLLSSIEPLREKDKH
How it was run: as §1

CLK3 = target: T4, CLK3 (Homo sapiens, UniProt P49761)
T4 construct: purchased Invitrogen / ThermoFisher SelectScreen
How it was run: as §1

CSF1R = target: T5, CSF1R (Homo sapiens, UniProt P07333)
T5 construct: purchased Invitrogen / ThermoFisher SelectScreen
How it was run: as §1

CaMKI = target: T6, CaMKI (Homo sapiens, UniProt Q14012)
T6 construct: purchased Invitrogen / ThermoFisher SelectScreen
T6 sequence (Q14012 whole entry): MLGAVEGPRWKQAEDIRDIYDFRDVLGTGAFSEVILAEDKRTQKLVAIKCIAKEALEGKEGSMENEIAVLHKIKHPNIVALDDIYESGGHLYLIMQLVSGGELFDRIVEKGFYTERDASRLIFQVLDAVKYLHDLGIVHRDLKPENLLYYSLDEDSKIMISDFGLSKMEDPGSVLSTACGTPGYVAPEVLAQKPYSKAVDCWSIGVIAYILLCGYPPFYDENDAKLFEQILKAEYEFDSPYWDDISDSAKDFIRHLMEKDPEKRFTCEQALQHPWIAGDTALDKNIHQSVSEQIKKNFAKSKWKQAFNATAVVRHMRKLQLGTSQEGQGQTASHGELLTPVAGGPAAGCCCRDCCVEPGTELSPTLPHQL
How it was run: as §1

CaMKII_beta = target: T7, CaMKII_beta (Homo sapiens, UniProt Q13554)
T7 construct: purchased Invitrogen / ThermoFisher SelectScreen
How it was run: as §1

Cot = target: T8, Cot (Homo sapiens, UniProt P41279)
T8 construct: purchased Invitrogen / ThermoFisher SelectScreen
How it was run: as §1

EGFR (T790M,L858R) = target: T9, EGFR (T790M,L858R) (Homo sapiens, UniProt P00533, L858R/T790M)
T9 construct: purchased Invitrogen / ThermoFisher SelectScreen
How it was run: as §1

ERK2 = target: T10, ERK2 (Homo sapiens, UniProt P28482)
T10 construct: purchased Invitrogen / ThermoFisher SelectScreen
How it was run: as §1

FGFR1 = target: T11, FGFR1 (Homo sapiens, UniProt P11362)
T11 construct: purchased Invitrogen / ThermoFisher SelectScreen
T11 sequence (P11362 22-822): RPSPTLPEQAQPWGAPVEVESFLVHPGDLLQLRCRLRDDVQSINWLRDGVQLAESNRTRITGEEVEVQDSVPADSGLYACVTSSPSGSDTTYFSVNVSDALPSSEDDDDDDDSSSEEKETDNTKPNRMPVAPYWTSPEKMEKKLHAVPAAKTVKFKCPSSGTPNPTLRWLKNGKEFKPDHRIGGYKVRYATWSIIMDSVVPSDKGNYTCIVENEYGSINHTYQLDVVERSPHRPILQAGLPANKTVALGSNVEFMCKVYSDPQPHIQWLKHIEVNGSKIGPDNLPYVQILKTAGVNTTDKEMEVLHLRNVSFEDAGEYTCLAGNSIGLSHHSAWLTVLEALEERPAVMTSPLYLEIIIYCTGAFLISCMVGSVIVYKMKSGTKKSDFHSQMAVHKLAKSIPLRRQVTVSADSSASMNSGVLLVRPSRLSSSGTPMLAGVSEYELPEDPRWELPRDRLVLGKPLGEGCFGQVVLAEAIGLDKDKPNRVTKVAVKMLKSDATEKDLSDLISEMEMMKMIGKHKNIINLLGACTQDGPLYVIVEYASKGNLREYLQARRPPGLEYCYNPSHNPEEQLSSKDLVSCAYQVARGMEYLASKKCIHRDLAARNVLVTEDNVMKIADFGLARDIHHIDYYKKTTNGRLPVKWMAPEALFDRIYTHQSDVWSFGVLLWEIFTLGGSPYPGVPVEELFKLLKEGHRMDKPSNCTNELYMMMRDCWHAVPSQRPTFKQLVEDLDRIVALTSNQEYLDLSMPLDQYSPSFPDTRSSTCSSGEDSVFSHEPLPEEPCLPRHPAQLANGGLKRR
How it was run: as §1

FGFR3 = target: T12, FGFR3 (Homo sapiens, UniProt P22607)
T12 construct: purchased Invitrogen / ThermoFisher SelectScreen
How it was run: as §1

FGFR4 = target: T13, FGFR4 (Homo sapiens, UniProt P22455)
T13 construct: purchased Invitrogen / ThermoFisher SelectScreen
How it was run: as §1

Fgr = target: T14, Fgr (Homo sapiens, UniProt P09769)
T14 construct: purchased Invitrogen / ThermoFisher SelectScreen
How it was run: as §1

IGF1R = target: T15, IGF1R (Homo sapiens, UniProt P08069)
T15 construct: purchased Invitrogen / ThermoFisher SelectScreen
How it was run: as §1

KDR = target: T16, KDR (Homo sapiens, UniProt P35968)
T16 construct: purchased Invitrogen / ThermoFisher SelectScreen
How it was run: as §1

Lyn = target: T17, Lyn (Homo sapiens, UniProt P07948)
T17 construct: purchased Invitrogen / ThermoFisher SelectScreen
T17 sequence (P07948 whole entry): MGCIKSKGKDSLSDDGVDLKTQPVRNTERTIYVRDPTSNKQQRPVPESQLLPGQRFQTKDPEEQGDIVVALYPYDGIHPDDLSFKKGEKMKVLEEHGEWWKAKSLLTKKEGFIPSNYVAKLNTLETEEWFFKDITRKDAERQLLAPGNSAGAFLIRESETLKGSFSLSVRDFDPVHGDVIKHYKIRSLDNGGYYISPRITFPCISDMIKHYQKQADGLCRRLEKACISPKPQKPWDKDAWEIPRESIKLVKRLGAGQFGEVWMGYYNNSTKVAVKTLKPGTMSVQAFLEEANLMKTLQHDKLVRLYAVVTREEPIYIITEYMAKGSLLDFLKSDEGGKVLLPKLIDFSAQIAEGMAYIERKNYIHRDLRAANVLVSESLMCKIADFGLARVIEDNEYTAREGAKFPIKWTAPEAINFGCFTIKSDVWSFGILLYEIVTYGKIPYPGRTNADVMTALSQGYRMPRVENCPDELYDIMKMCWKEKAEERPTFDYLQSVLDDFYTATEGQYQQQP
How it was run: as §1

MAP4K4 = target: T18, MAP4K4 (Homo sapiens, UniProt O95819)
T18 construct: purchased Invitrogen / ThermoFisher SelectScreen
How it was run: as §1

MST1 = target: T19, MST1 (Homo sapiens, UniProt Q13043)
T19 construct: purchased Invitrogen / ThermoFisher SelectScreen
How it was run: as §1

MST2 = target: T20, MST2 (Homo sapiens, UniProt Q13188)
T20 construct: purchased Invitrogen / ThermoFisher SelectScreen
How it was run: as §1

PAK4 = target: T21, PAK4 (Homo sapiens, UniProt O96013)
T21 construct: purchased Invitrogen / ThermoFisher SelectScreen
How it was run: as §1

PASK = target: T22, PASK (Homo sapiens, UniProt Q96RG2)
T22 construct: purchased Invitrogen / ThermoFisher SelectScreen
How it was run: as §1

PIM1 = target: T23, PIM1 (Homo sapiens, UniProt P11309)
T23 construct: purchased Invitrogen / ThermoFisher SelectScreen
How it was run: as §1

PKA = target: T24, PKA (Homo sapiens, UniProt P17612)
T24 construct: purchased Invitrogen / ThermoFisher SelectScreen
How it was run: as §1

PKC-epsilon = target: T25, PKC-epsilon (Homo sapiens, UniProt Q02156)
T25 construct: purchased Invitrogen / ThermoFisher SelectScreen
T25 sequence (Q02156 whole entry): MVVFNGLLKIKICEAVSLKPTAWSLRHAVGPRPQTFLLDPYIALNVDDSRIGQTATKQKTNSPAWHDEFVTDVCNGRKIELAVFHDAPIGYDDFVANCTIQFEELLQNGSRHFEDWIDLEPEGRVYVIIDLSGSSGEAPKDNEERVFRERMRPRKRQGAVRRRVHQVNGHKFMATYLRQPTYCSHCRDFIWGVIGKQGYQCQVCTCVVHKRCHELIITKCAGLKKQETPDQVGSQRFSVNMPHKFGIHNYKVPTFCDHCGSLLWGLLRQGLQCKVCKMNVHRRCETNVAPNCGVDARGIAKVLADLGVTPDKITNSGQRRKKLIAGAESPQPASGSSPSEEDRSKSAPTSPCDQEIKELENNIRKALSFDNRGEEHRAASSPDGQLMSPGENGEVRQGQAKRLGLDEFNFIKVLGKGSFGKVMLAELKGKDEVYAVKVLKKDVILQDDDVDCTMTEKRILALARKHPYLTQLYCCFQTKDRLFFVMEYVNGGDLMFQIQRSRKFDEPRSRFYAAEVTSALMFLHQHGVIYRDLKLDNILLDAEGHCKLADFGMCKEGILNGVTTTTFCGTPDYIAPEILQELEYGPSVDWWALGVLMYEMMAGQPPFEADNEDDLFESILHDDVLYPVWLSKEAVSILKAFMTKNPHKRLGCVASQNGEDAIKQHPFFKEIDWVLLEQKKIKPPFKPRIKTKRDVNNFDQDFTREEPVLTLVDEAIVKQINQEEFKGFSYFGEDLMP
How it was run: as §1

PKC_alpha = target: T26, PKC_alpha (Homo sapiens, UniProt P17252)
T26 construct: purchased Invitrogen / ThermoFisher SelectScreen
How it was run: as §1

PLK2 = target: T27, PLK2 (Homo sapiens, UniProt Q9NYY3)
T27 construct: purchased Invitrogen / ThermoFisher SelectScreen
T27 sequence (Q9NYY3 whole entry): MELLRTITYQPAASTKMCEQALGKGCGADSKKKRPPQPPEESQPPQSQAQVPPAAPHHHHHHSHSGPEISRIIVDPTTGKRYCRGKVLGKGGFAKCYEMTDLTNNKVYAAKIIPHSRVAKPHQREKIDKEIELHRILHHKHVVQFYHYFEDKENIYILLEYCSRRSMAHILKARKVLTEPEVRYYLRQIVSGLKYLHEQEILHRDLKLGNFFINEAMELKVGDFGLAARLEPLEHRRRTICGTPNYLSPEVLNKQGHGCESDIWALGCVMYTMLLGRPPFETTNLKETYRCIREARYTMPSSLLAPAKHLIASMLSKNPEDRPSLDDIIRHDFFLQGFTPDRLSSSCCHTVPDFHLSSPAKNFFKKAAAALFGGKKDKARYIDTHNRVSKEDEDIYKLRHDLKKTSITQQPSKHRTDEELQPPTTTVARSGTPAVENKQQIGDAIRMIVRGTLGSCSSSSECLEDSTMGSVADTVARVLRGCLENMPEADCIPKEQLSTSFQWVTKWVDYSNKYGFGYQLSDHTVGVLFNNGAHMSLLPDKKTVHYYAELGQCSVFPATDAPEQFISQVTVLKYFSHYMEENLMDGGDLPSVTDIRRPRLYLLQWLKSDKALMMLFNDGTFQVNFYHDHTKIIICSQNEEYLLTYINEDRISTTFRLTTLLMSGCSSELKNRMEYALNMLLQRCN
How it was run: as §1

PRKAA1 = target: T28, PRKAA1 (Homo sapiens, UniProt Q13131)
T28 construct: purchased Invitrogen / ThermoFisher SelectScreen
How it was run: as §1

PhK_gamm1 = target: T29, PhK_gamm1 (Homo sapiens, UniProt Q16816)
T29 construct: purchased Invitrogen / ThermoFisher SelectScreen
How it was run: as §1

ROCK1 = target: T30, ROCK1 (Homo sapiens, UniProt Q13464)
T30 construct: purchased Invitrogen / ThermoFisher SelectScreen
How it was run: as §1

RSK2 = target: T31, RSK2 (Homo sapiens, UniProt P51812)
T31 construct: purchased Invitrogen / ThermoFisher SelectScreen
How it was run: as §1

SGK3 = target: T32, SGK3 (Homo sapiens, UniProt Q96BR1)
T32 construct: purchased Invitrogen / ThermoFisher SelectScreen
T32 sequence (Q96BR1 whole entry): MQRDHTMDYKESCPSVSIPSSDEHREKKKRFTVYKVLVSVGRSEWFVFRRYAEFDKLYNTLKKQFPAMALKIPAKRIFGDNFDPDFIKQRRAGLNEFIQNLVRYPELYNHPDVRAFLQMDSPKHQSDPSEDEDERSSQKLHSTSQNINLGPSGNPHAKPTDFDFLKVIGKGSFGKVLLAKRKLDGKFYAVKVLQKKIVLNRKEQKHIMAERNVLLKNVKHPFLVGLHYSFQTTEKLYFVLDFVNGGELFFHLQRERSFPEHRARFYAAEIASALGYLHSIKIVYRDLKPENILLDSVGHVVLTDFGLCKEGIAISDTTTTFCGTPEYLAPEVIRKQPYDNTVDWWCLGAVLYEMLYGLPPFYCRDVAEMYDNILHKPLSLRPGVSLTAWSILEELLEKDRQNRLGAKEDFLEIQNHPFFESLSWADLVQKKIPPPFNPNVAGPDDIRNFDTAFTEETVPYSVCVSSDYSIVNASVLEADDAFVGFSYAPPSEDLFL
How it was run: as §1

TAO1 = target: T33, TAO1 (Homo sapiens, UniProt Q9UL54)
T33 construct: purchased Invitrogen / ThermoFisher SelectScreen
How it was run: as §1

T1 sequence (Q06187 whole entry): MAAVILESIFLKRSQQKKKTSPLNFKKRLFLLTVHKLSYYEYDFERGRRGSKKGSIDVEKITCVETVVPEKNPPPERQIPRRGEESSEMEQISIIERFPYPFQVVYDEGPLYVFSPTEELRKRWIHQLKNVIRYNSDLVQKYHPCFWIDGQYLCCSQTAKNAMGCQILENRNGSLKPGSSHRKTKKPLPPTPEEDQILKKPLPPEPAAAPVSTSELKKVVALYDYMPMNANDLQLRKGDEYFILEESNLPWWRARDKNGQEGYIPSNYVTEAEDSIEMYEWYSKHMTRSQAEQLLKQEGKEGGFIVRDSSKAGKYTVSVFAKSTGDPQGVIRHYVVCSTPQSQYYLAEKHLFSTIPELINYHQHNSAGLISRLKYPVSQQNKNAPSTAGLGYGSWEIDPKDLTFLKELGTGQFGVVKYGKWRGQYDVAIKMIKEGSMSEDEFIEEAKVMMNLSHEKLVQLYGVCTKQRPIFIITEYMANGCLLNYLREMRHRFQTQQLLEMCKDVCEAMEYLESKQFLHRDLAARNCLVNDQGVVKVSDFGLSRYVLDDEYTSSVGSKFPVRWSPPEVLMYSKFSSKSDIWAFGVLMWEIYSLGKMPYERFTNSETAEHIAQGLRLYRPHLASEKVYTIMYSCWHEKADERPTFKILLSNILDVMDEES

With `COc1cc(C(N)=O)nc(-c2cccc(C#C[C@]3(O)CCN(C)C3=O)c2)c1` [NIK SMI1] the inhibition at 1 µM (BTK) was -3%, the inhibition at 1 µM (Blk) was -10.5% and the inhibition at 1 µM (Bmx) was -5%. For the same compound, the inhibition at 1 µM (CLK3) was 14.5%, the inhibition at 1 µM (CSF1R) was -11% and the inhibition at 1 µM (CaMKI) was 18.3%. The inhibition at 1 µM (CaMKII_beta) was 30.5%, the inhibition at 1 µM (Cot) was 34.5% and the inhibition at 1 µM (EGFR (T790M,L858R)) was 9.5%. It also gave an inhibition at 1 µM (ERK2) of 5.5%, an inhibition at 1 µM (FGFR1) of -5.5% and an inhibition at 1 µM (FGFR3) of -3.5%. The inhibition at 1 µM (FGFR4) was 7.5%, the inhibition at 1 µM (Fgr) was 8% and the inhibition at 1 µM (IGF1R) was 8.5%. For the same compound, the inhibition at 1 µM (KDR) was -1.5%, the inhibition at 1 µM (Lyn) was 2.5% and the inhibition at 1 µM (MAP4K4) was 45.5%. The inhibition at 1 µM (MST1) was 11.5%, the inhibition at 1 µM (MST2) was 28% and the inhibition at 1 µM (PAK4) was 64%. It also gave an inhibition at 1 µM (PASK) of 16%, an inhibition at 1 µM (PIM1) of -0.5% and an inhibition at 1 µM (PKA) of -3%. For the same compound, the inhibition at 1 µM (PKC-epsilon) was 2%, the inhibition at 1 µM (PKC_alpha) was 4.5% and the inhibition at 1 µM (PLK2) was 4%. It also gave an inhibition at 1 µM (PRKAA1) of 20.5%, an inhibition at 1 µM (PhK_gamm1) of 6.5% and an inhibition at 1 µM (ROCK1) of 9.5%. The inhibition at 1 µM (RSK2) was 7%, the inhibition at 1 µM (SGK3) was -0.5% and the inhibition at 1 µM (TAO1) was 17%.
